The source of these data is patent US9796733B2, “Imidazo-pyrazine derivatives useful as soluble guanylate cyclase activators” (Merck Sharp & Dohme Corp., priority 2014, dated 2017).

Each structure is given as a SMILES string.

Experiment [1] concerns Spontaneously hypertensive rats (SHR). Put plainly: Acute efficacy in spontaneously hypertensive rats (SHR): telemetry blood pressure lowering after a single oral dose. The class given is in vivo, rat. In outline:
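Male SHR carrying aortic telemetry implants (14-day recovery) received a single oral gavage of compound or vehicle (10% transcutol/20% Cremophor/70% water). Conscious blood pressure was sampled 30 s every 10 min and averaged hourly; change was taken against the prior-day vehicle baseline, reported as maximum peak SBP decrease at a given PO dose (mpk).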

Another experiment has as its target T1, sGC α1/β1 heterodimer (Homo sapiens, UniProt Q02108+Q02153).
T1 construct: expressed in transfected cells; host or cells: CHO-K1 (clone #7, CHO-K1/sGC)
T1 sequence (Q02108 1-690): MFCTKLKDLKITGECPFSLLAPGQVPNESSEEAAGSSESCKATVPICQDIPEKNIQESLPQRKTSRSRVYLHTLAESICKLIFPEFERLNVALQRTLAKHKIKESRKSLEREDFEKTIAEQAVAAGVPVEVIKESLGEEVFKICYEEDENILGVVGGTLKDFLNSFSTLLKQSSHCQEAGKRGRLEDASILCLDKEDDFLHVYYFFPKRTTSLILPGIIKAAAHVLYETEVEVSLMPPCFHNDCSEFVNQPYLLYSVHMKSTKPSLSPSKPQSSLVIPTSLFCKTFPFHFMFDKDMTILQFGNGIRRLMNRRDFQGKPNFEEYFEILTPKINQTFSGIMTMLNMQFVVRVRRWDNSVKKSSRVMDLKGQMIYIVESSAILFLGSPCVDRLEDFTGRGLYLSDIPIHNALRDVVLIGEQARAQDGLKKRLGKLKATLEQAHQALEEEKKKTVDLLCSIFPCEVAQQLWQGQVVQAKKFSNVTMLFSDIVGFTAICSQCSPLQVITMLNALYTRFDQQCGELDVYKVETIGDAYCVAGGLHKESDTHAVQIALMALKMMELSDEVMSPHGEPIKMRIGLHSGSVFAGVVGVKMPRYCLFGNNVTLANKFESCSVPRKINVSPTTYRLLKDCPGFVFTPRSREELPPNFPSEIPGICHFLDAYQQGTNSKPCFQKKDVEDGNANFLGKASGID
T1 sequence (Q02153 1-619): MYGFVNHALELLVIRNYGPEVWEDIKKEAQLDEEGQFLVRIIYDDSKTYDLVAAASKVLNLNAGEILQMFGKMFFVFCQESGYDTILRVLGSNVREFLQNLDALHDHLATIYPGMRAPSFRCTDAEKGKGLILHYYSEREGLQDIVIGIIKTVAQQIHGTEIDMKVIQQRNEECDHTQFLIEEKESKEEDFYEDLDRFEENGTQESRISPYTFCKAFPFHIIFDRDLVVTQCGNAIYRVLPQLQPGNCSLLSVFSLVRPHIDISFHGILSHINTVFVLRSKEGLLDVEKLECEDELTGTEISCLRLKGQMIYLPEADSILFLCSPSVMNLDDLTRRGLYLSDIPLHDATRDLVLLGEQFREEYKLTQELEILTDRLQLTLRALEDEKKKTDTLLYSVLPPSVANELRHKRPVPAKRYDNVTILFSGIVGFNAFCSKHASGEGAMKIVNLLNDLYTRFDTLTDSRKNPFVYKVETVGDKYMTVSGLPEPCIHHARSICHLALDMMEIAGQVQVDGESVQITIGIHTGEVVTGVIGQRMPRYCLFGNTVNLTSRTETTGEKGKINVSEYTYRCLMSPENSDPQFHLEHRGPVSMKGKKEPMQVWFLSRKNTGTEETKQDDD
Description: Cell-based sGC functional assay (CASA assay): cGMP generation in CHO-K1/sGC cells, HTRF detection. Particulars: for Emax: CHO-K1, percent activation relative to standard Compound A in CHO-K1/sGC cells, read-out: % Act.; for EC50: inflection point (IP) of cGMP generation in CHO-K1/sGC cells, 4P fit, activity expressed as percentage of Compound A. The method, boiled down:
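Stable CHO-K1/sGC cells in EBSS buffer with 5 mM MgCl2, 0.05% BSA and 0.5 mM IBMX were incubated with compound (2.5% DMSO final) ±1 μM DETA-NO for 1 hr at 37° C. cGMP was measured by HTRF. Activation is expressed as % of reference HDA Compound A maximum, with IP and max fold induction from a 4P fit.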

As to `CC1(c2ccc(OC(F)(F)F)cc2)C(=O)Nc2nc(-c3cn4ccnc4c(CCCC(F)(F)F)n3)nc(N)c21` (stereo not drawn) [Example 207B, 4-amino-5-methyl-2-(8-(4,4,4-trifluorobutyl)imidazo[1,2-a]pyrazin-6-yl)-5-(4-(trifluoromethoxy)phenyl)-5H-pyrrolo[2,3-d]pyrimidin-6(7H)-one], in experiment [1] (P.O. 0.3 mpk), the “Maximum peak decrease of systolic blood pressure (SBP) in SHR, Cat.” value (from here on “Maximum peak decrease”) is recorded as “B (Category B=SBP in SHRs 20-40 mmHg)”. In addition, at sGC α1/β1 heterodimer, the Emax stood at 121% and the EC50 came to 0.044 µM.
As for `CC1(c2ccc(Cl)cn2)C(=O)Nc2nc(-c3cn4ccnc4c(CCCC(F)(F)F)n3)nc(N)c21` (stereo not drawn) [Example 208A, 4-amino-5-(5-chloropyridin-2-yl)-5-methyl-2-(8-(4,4,4-trifluorobutyl)imidazo[1,2-a]pyrazin-6-yl)-5H-pyrrolo[2,3-d]pyrimidin-6(7H)-one], the “Maximum peak decrease” value in experiment [1] (P.O. 0.3 mpk) is recorded as “C (Category C=SBP in SHRs>40 mmHg)”. At sGC α1/β1 heterodimer, the Emax came out at 88% and the EC50 stood at 0.036 µM.
The like results for `CCC1(c2ccc(Cl)cc2)C(=O)Nc2nc(-c3cn4ccnc4c(CCCC(F)(F)F)n3)nc(N)c21` (stereo not drawn) [Example 209B, 4-amino-5-(4-chlorophenyl)-5-ethyl-2-(8-(4,4,4-trifluorobutyl)imidazo[1,2-a]pyrazin-6-yl)-5H-pyrrolo[2,3-d]pyrimidin-6(7H)-one] were, in that order, “B (Category B=SBP in SHRs 20-40 mmHg)”, 111% and 0.049 µM.
The like results for `CC1(c2ccc(F)cn2)C(=O)Nc2nc(-c3cn4ccnc4c(CCCC(F)(F)F)n3)nc(N)c21` (stereo not drawn) [Example 210B, 4-amino-5-(5-fluoropyridin-2-yl)-5-methyl-2-(8-(4,4,4-trifluorobutyl)imidazo[1,2-a]pyrazin-6-yl)-5H-pyrrolo[2,3-d]pyrimidin-6(7H)-one] were, in that order, “A (Category A=SBP in SHRs<20 mmHg)”, 97% and 0.04 µM.
`CC1(c2ccc(F)cc2)C(=O)Nc2nc(-c3cn4ccnc4c(CCCC(F)(F)F)n3)nc(N)c21` (stereo not drawn) [Example 211A, 4-amino-5-(4-fluorophenyl)-5-methyl-2-(8-(4,4,4-trifluorobutyl)imidazo[1,2-a]pyrazin-6-yl)-5H-pyrrolo[2,3-d]pyrimidin-6(7H)-one]: the “Maximum peak decrease” value in experiment [1] (P.O. 0.3 mpk) was “A (Category A=SBP in SHRs<20 mmHg)”. Also, at sGC α1/β1 heterodimer, the Emax was 122% and a half-maximal response (EC50) required 0.075 µM.
Consider `CC1(c2ccc(C(F)(F)F)cn2)C(=O)Nc2nc(-c3cn4ccnc4c(CCCC(F)(F)F)n3)nc(N)c21` (stereo not drawn) [Example 213B, 4-amino-5-methyl-2-(8-(4,4,4-trifluorobutyl)imidazo[1,2-a]pyrazin-6-yl)-5-(5-(trifluoromethyl)pyridin-2-yl)-5H-pyrrolo[2,3-d]pyrimidin-6(7H)-one], for which, in experiment [1] (P.O. 0.3 mpk), the “Maximum peak decrease” value is reported as “B (Category B=SBP in SHRs 20-40 mmHg)”. Moreover, at sGC α1/β1 heterodimer, the Emax was 89% and the midpoint of the response, the EC50, lay at 0.1 µM.
Take `CC1(c2ccc(OC(F)F)cn2)C(=O)Nc2nc(-c3cn4ccnc4c(CCCC(F)(F)F)n3)nc(N)c21` (stereo not drawn) [Example 214A, 4-amino-5-(5-(difluoromethoxy)pyridin-2-yl)-5-methyl-2-(8-(4,4,4-trifluorobutyl)imidazo[1,2-a]pyrazin-6-yl)-5H-pyrrolo[2,3-d]pyrimidin-6(7H)-one]: the “Maximum peak decrease” value in experiment [1] (P.O. 1.0 mpk) was “B (Category B=SBP in SHRs 20-40 mmHg)”. Besides, on sGC α1/β1 heterodimer, the Emax was found to be 92% and the EC50 turned out to be 0.247 µM.
For `CCC1(c2ccc(F)cc2)C(=O)Nc2nc(-c3cn4ccnc4c(CCCC(F)(F)F)n3)nc(N)c21` (stereo not drawn) [Example 215A, 4-amino-5-ethyl-5-(4-fluorophenyl)-2-(8-(4,4,4-trifluorobutyl)imidazo[1,2-a]pyrazin-6-yl)-5H-pyrrolo[2,3-d]pyrimidin-6(7H)-one], the “Maximum peak decrease” value in experiment [1] (P.O. 0.3 mpk) was “B (Category B=SBP in SHRs 20-40 mmHg)”. At sGC α1/β1 heterodimer, the Emax stood at 107% and the EC50 was 0.351 µM.
For `CCOc1ccc(C2(C)C(=O)Nc3nc(-c4cn5ccnc5c(CCCC(F)(F)F)n4)nc(N)c32)nc1` (stereo not drawn) [Example 216A, 4-amino-5-(5-ethoxypyridin-2-yl)-5-methyl-2-(8-(4,4,4-trifluorobutyl)imidazo[1,2-a]pyrazin-6-yl)-5H-pyrrolo[2,3-d]pyrimidin-6(7H)-one], the “Maximum peak decrease” value in experiment [1] (P.O. 1.0 mpk) is on record as “B (Category B=SBP in SHRs 20-40 mmHg)”. Moreover, at sGC α1/β1 heterodimer, the Emax was 77% and the EC50 turned out to be 0.146 µM.
On to `Nc1nc(-c2cn3ccnc3c(CCCC(F)(F)F)n2)nc2c1C(c1ccc(F)cn1)(C1CC1)C(=O)N2` (stereo not drawn) [Example 217A, 4-amino-5-cyclopropyl-5-(5-fluoropyridin-2-yl)-2-(8-(4,4,4-trifluorobutyl)imidazo[1,2-a]pyrazin-6-yl)-5H-pyrrolo[2,3-d]pyrimidin-6(7H)-one], for which, in experiment [1] (P.O. 1.0 mpk), the “Maximum peak decrease” value is on record as “C (Category C=SBP in SHRs>40 mmHg)”. Also, on sGC α1/β1 heterodimer, the Emax turned out to be 82% and the EC50 came to 0.288 µM.
Regarding `Nc1nc(-c2cn3ccnc3c(CCCC(F)(F)F)n2)nc2c1C(c1ccc(Cl)cn1)(C1CC1)C(=O)N2` (stereo not drawn) [Example 218B, 4-amino-5-(5-chloropyridin-2-yl)-5-cyclopropyl-2-(8-(4,4,4-trifluorobutyl)imidazo[1,2-a]pyrazin-6-yl)-5H-pyrrolo[2,3-d]pyrimidin-6(7H)-one], in experiment [1] (P.O. 1.0 mpk), the “Maximum peak decrease” value was “C (Category C=SBP in SHRs>40 mmHg)”. In addition, on sGC α1/β1 heterodimer, the Emax was 126% and the response was half-maximal at 0.253 µM (EC50).
With `Nc1nc(-c2cn3ccnc3c(CCCC(F)(F)F)n2)nc2c1C(c1ccc(C(F)(F)F)cn1)(C1CC1)C(=O)N2` (stereo not drawn) [Example 219A, 4-amino-5-cyclopropyl-2-(8-(4,4,4-trifluorobutyl)imidazo[1,2-a]pyrazin-6-yl)-5-(5-(trifluoromethyl)pyridin-2-yl)-5H-pyrrolo[2,3-d]pyrimidin-6(7H)-one], the “Maximum peak decrease” value in experiment [1] (P.O. 1.0 mpk) is given as “B (Category B=SBP in SHRs 20-40 mmHg)”. Also, at sGC α1/β1 heterodimer, the Emax worked out at 124% and the EC50 worked out at 0.053 µM.
With `CC1(c2ncccn2)C(=O)Nc2nc(-c3cn4ccnc4c(CCC(F)(F)C(F)(F)F)n3)nc(N)c21` (stereo not drawn) [Example 220B, 4-amino-5-methyl-2-(8-(3,3,4,4,4-pentafluorobutyl)imidazo [1,2-a]pyrazin-6-yl)-5-(pyrimidin-2-yl)-5H-pyrrolo[2,3-d]pyrimidin-6(7H)-one], the “Maximum peak decrease” value in experiment [1] (P.O. 3.0 mpk) is “A (Category A=SBP in SHRs<20 mmHg)”. Besides, on sGC α1/β1 heterodimer, the Emax was 100% and the midpoint of the response, the EC50, lay at 0.409 µM.
On to `Cc1ccc(C2(C)C(=O)Nc3nc(-c4cn5ccnc5c(CCC(F)(F)C(F)(F)F)n4)nc(N)c32)cn1` (stereo not drawn) [Example 221A, 4-amino-5-methyl-5-(6-methylpyridin-3-yl)-2-(8-(3,3,4,4,4-pentafluorobutyl)imidazo [1,2-a]pyrazin-6-yl)-5H-pyrrolo[2,3-d]pyrimidin-6(7H)-one], for which the “Maximum peak decrease” value in experiment [1] (P.O. 1.0 mpk) is recorded as “A (Category A=SBP in SHRs<20 mmHg)”. On sGC α1/β1 heterodimer, the Emax came out at 107% and the EC50 was determined as 0.496 µM.
